Laboratory results taken from patent US9115149B2, “Heterocyclic compounds as inhibitors of fatty acid biosysnthesis for bacterial infections” (Vitas Pharma Research Private Limited, priority 2011, dated 2015).
Converted amounts (≈) assume the structure as drawn. Like-named read-outs stand apart in the source and are kept apart here.

Columns and labels:
[1] = Pharmacokinetic profile in male Swiss albino mice; conditions: mouse, in vivo; for AUC / Cmax / clearance / half-life: intravenous single dose 5 mg/kg body weight; for bioavailability: po
Description: The following compounds were dosed to male Swiss albino mice to determine the pharmacokinetic profiles.

[2] = test system: Bacillus subtilis (ΔFabI, ΔFabL; Pxylose SaFabI); experiment: Target specificity: MIC in B. subtilis expressing S. aureus FabI under xylose inducible promoter; format: cell-based
Description: To test for target specificity, the MIC was determined in a Bacillus subtilis strain in which the two FabI homologues (FabI and FabL) were deleted and replaced with S. aureus FabI (Sa FabI) under a Xylose inducible promoter. By varying the amount of xylose in the growth medium, the expression of FabI was proportionately modified. Compounds specifically targeting Sa FabI show an increased MIC when higher amounts of FabI are present in the cell (high Xylose concentrations). In contrast, when FabI levels are low, the cell becomes hypersusceptible, reducing the MIC (low Xylose concentrations). […] Shown below are data for target specificity.

[3] = Metabolic stability in mouse liver microsomes; format: in vitro ADME
Description: (§1) Shown below are the biological activities of representative compounds of the invention. The compounds were tested by the microbroth dilution method (National committee for Clinical Laboratory Standards, M07-A8, Volume 29, 2009) to determine the Minimum Inhibitory Concentration (MIC) against Methicillin sensitive and resistant Staphylococcus aureus. The MICs in the presence of 10% BSA was also tested. Further, select compounds were tested for metabolic stability using mouse liver microsomes based on published protocols (Journal of Biological Sciences, 2008, 8, 1110-1114).

MRSA ATCC33591 = experiment: Systemic infection model in mice; format: in vivo
Description: In order to evaluate the in vivo efficacy of the scaffold, we tested representative compounds for activity in the systemic infection model in mice (Antimicrobial Agents and Chemotherapy, 47, 2507-2512, 2003). In this model, a 15× medial lethal dose of the bacteria (MRSA ATCC33591) was administered to mice intraperitoneally. 1 hour later, VT-02-00068 was administered i.v. at doses of 30, 10 and 3 mg/kg body weight. The compound was administered again 4 hours later. A total of 5 doses were administered, i.e. 2 doses on day 0, 2 on day 1 and 1 on day 2. […] The survival was 100, 100 and 65% at 30, 10 and 3 mg/kg body weight respectively.
VT-02-00044 was tested using the same protocol. The compound was dosed at 50 mg/kg body weight for 3 days, 2 doses per day.

[4] = test system: Methicillin resistant Staphylococcus aureus (ATCC 33591); experiment: MIC in the presence of BSA; format: cell-based; conditions: ATCC33591, 10% BSA
Description: as §1

[5] = test system: Staphylococcus aureus (ATCC29213); experiment: MIC by microbroth dilution, methicillin sensitive S. aureus; format: cell-based; conditions: read-out: Minimum inhibitory concentration (MIC) Staphylococcus aureus (ATCC29213)
Description: as §1

[6] = test system: Methicillin resistant Staphylococcus aureus (ATCC 33591); experiment: MIC by microbroth dilution, methicillin resistant S. aureus; format: cell-based; conditions: ATCC33591, read-out: Minimum inhibitory concentration (MIC) Methicillin resistant Staphylococcus aureus (ATCC 33591)
Description: as §1

[7] = Mutation prevention concentration; format: cell-based
Description: The mutation prevention concentration or the concentration above which mutants are unlikely to be selected, was determined based on published protocols (Antimicrobial Agents and Chemotherapy, 45, 433-438, 2001).

[8] = test system: S. epidermidis ATCC 12228; experiment: MIC against non-S. aureus strains; format: cell-based
Description: (§2) A subset of compounds was tested against non-S. aureus strains to determine the Minimum Inhibitory Concentration (MIC) against non-S. aureus species (National committee for Clinical Laboratory Standards, M07-A8, Volume 29, 2009).

M. catarrhalis ATCC 8176 = experiment: MIC against non-S. aureus strains; format: cell-based
Description: as §2

E. feacalis ATCC 29212 = experiment: MIC against non-S. aureus strains; format: cell-based
Description: as §2

E. coli ATCC 25922 = experiment: MIC against non-S. aureus strains; format: cell-based
Description: as §2

[9] = test system: S. haemolyticus ATCC 29970; experiment: MIC against non-S. aureus strains; format: cell-based
Description: as §2

S. pneumoniae ATCC 6301 = experiment: MIC against non-S. aureus strains; format: cell-based
Description: as §2

H. influenzae ATCC 49247 = experiment: MIC against non-S. aureus strains; format: cell-based
Description: as §2

[10] = read-out: MIC in the presence of 0.005% Xylose (low Xylose concentration)
[11] = read-out: MIC in the presence of 0.5% Xylose (high Xylose concentration)

Row | SMILES | AUC [1] [ng·h/mL] | Cmax [1] [ng/mL] | clearance [1] [mL/min/kg] | half-life [1] [h] | bioavailability [1] [%] | MIC [2, 10] [ng/mL] | MIC [2, 11] [ng/mL] | Metabolic stability (mouse liver microsomes) % of compound remaining after 30 minutes [3] [%] | MIC [4] [ng/mL] | MIC [5] [ng/mL] | MIC [6] [ng/mL] | further results
1 | CCn1c(=O)[nH]c2ncc(/C=C/C(=O)N(C)Cc3cc4ccccc4n3C)cc21 [VT-02-00044, (E)-3-(1-ethyl-2-oxo-2,3-dihydro-1H-imidazo[4,5-b]pyridin-6-yl)-N-methyl-N-((1-methyl-1H-indol-2-yl)methyl)acrylamide] | 1040 | 949 | 75.9 | 1.65 | 29 | < 1.9 | 15 | 50 | 2000 | 500 (≈ 1.28 µM) | 1000 (≈ 2.57 µM) | Survival (MRSA ATCC33591; 50 mg/kg body weight for 3 days, 2 doses per day): 100%
2 | CCC1(CC)C(=O)Nc2ncc(/C=C/C(=O)N(C)Cc3cc4ccccc4n3C)cc21 [VT-02-00064, (E)-3-(3,3-diethyl-2-oxo-2,3-dihydro-1H-pyrrolo[2,3-b]pyridin-5-yl)-N-methyl-N-((1-methyl-1H-indol-2-yl)methyl)acrylamide] | 1400 | 1810 | 59.4 | 0.44 | 51.5 | 30 | 250 | 18 | 1000 | 120 (≈ 0.288 µM) | 120 (≈ 0.288 µM) | –
3 | Cc1c(CN(C)C(=O)/C=C/c2cnc3c(c2)C(C)(C)C(=O)N3)oc2ccccc12 [VT-02-00068, (E)-3-(3,3-dimethyl-2-oxo-2,3-dihydro-1H-pyrrolo[2,3-b]pyridin-5-yl)-N-methyl-N-((3-methylbenzofuran-2-yl)methyl)acrylamide] | 10300 | 7850 | 7.83 | 1.82 | 56.1 | < 0.06 | 15 | 21 | 500 | 15 (≈ 0.0385 µM) | 15 (≈ 0.0385 µM) | Mutation prevention concentration [7]: 0.5 ug/ml μg/ml; Survival (MRSA ATCC33591; 3 mg/kg body weight i.v., 5 doses, mortality observed for 7 days): 65%; Survival (MRSA ATCC33591; 10 mg/kg body weight i.v., 5 doses, mortality observed for 7 days): 100%; Survival (MRSA ATCC33591; 30 mg/kg body weight i.v., 5 doses, mortality observed for 7 days): 100%; MIC S. epidermidis ATCC 12228 [8]: 30 ng/mL (≈ 0.077 µM); MIC M. catarrhalis ATCC 8176 (M. catarrhalis ATCC 8176): > 16000 ng/mL; MIC E. feacalis ATCC 29212 (E. feacalis ATCC 29212): > 16000 ng/mL; MIC E. coli ATCC 25922 (E. coli ATCC 25922): > 16000 ng/mL; MIC S. haemolyticus ATCC 29970 [9]: 250 ng/mL (≈ 0.642 µM); MIC S. pneumoniae ATCC 6301 (S. pneumoniae ATCC 6301): > 32000 ng/mL; MIC H. influenzae ATCC 49247 (H. influenzae ATCC 49247): > 16000 ng/mL
4 | CCC1(CC)C(=O)Nc2ncc(/C=C/C(=O)N(C)Cc3oc4ccccc4c3C)cc21 [VT-02-00071, (E)-3-(3,3-diethyl-2-oxo-2,3-dihydro-1H-pyrrolo[2,3-b]pyridin-5-yl)-N-methyl-N-((3-methylbenzofuran-2-yl)methyl)acrylamide] | 1220 | 1550 | 67.8 | 0.52 | 26 | 0.000477 | 0.06 | 12 | 250 | 15 (≈ 0.0359 µM) | 15 (≈ 0.0359 µM) | –
5 | Cc1c(CN(C)C(=O)/C=C/c2cnc3c(c2)C2(CCC2)C(=O)N3)sc2ccccc12 [VT-02-00073, (E)-N-methyl-N-((3-methylbenzo[b]thiophen-2-yl)methyl)-3-(2′-oxo-1′,2′-dihydrospiro[cyclobutane-1,3′-pyrrolo[2,3-b]pyridine]-5′-yl)acrylamide] | 7320 | 4380 | 11.1 | 1.89 | 38.5 | 0.00381 | 0.97 | 11 | 250 | 15 (≈ 0.0359 µM) | 15 (≈ 0.0359 µM) | –
6 | CCC1(CC)C(=O)Nc2ncc(/C=C/C(=O)N(C)Cc3sc4ccccc4c3C)cc21 [VT-02-00078, (E)-3-(3,3-diethyl-2-oxo-2,3-dihydro-1H-pyrrolo[2,3-b]pyridin-5-yl)-N-methyl-N-((3-methylbenzo[b]thiophen-2-yl)methyl)acrylamide] | 1410 | – | 58.5 | 0.32 | 67.1 | < 2.98e-05 | 1.91e-05 | 15 | 250 | 15 (≈ 0.0346 µM) | 15 (≈ 0.0346 µM) | –
7 | CN(Cc1cn(C)c2ccccc12)C(=O)/C=C/c1ccc2c(c1)C1(CCC1)C(=O)N2 [VT-02-00085, (E)-N-methyl-N-((1-methyl-1H-indol-3-yl)methyl)-3-(2′-oxospiro[cyclobutane-1,3′-indoline]-5′-yl)acrylamide] | – | – | – | – | – | 0.97 | 60 | 33 | 1000 | 60 (≈ 0.15 µM) | 60 (≈ 0.15 µM) | –
8 | Cc1ccc2oc(CN(C)C(=O)/C=C/c3ccc4c(c3)C3(CCC3)C(=O)N4)c(C)c2c1 [VT-02-00086, (E)-N-((3,5-dimethylbenzofuran-2-yl)methyl)-N-methyl-3-(2′-oxospiro[cyclobutane-1,3′-indoline]-5′-yl)acrylamide] | – | – | – | – | – | 60 | 500 | 26 | 8000 | 500 (≈ 1.21 µM) | 500 (≈ 1.21 µM) | –
9 | Cc1c(CN(C)C(=O)/C=C/c2cnc3c(c2)C2(CCC2)C(=O)N3)c2ccccc2n1C [VT-02-00091, (E)-N-((1,2-dimethyl-1H-indol-3-yl)methyl)-N-methyl-3-(T-oxo-1′,2′-dihydrospiro[cyclobutane-1,3′-pyrrolo[2,3-b]pyridine]-5′-yl)acrylamide] | – | – | – | – | – | – | 0.061 | 21 | 120 | 15 (≈ 0.0362 µM) | 15 (≈ 0.0362 µM) | Mutation prevention concentration [7]: 0.06 µg/mL; MIC S. epidermidis ATCC 12228 [8]: 15 ng/mL (≈ 0.0362 µM); MIC M. catarrhalis ATCC 8176 (M. catarrhalis ATCC 8176): > 16000 ng/mL; MIC E. feacalis ATCC 29212 (E. feacalis ATCC 29212): > 16000 ng/mL; MIC E. coli ATCC 25922 (E. coli ATCC 25922): > 16000 ng/mL; MIC S. haemolyticus ATCC 29970 [9]: 15 ng/mL (≈ 0.0362 µM); MIC S. pneumoniae ATCC 6301 (S. pneumoniae ATCC 6301): > 32000 ng/mL; MIC H. influenzae ATCC 49247 (H. influenzae ATCC 49247): > 16000 ng/mL
10 | Cc1c(CN(C)C(=O)/C=C/c2cnc3c(c2)C2(CCC2)C(=O)N3)oc2ccccc12 [VT-02-00092, (E)-N-methyl-N-((3-methylbenzofuran-2-yl)methyl)-3-(2′-oxo-1′,2′-dihydrospiro[cyclobutane-1,3′-pyrrolo[2,3-b]pyridine]-5′-yl)acrylamide] | – | – | – | – | – | – | 3.9 | 22 | 250 | 60 (≈ 0.149 µM) | 60 (≈ 0.149 µM) | –
